Test results published in ChEMBL document CHEMBL5252509, “In depth analysis of kinase cross screening data to identify chemical starting points for inhibition of the Nek family of kinases” (Medchemcomm, 2018).

Columns and labels:
[1] = biological target: Serine/threonine-protein kinase Nek6 (Homo sapiens) (UniProt Q9HC98); assay: Inhibition of NEK6 (unknown origin) at 1 uM relative to control
[2] = biological target: T1, Serine/threonine-protein kinase Nek2 (Homo sapiens) (UniProt P51955); assay: Inhibition of NEK2 (unknown origin) at 1 uM relative to control
T1 sequence (whole entry): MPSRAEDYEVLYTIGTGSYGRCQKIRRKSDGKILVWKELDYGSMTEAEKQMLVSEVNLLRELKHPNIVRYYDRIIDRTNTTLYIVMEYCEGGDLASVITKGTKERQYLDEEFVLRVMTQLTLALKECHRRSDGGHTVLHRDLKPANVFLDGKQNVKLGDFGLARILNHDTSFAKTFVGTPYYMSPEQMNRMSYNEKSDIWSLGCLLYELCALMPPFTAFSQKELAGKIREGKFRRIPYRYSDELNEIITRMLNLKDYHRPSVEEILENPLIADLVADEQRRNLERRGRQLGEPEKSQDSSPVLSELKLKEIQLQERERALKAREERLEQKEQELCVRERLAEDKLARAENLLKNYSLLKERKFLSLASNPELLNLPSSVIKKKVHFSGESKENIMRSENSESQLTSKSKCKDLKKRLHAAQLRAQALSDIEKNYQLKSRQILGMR

[3] = biological target: T2, Serine/threonine-protein kinase Nek10 (Homo sapiens) (UniProt Q6ZWH5); assay: Inhibition of NEK10 (unknown origin) at 1 uM relative to control
T2 sequence (whole entry): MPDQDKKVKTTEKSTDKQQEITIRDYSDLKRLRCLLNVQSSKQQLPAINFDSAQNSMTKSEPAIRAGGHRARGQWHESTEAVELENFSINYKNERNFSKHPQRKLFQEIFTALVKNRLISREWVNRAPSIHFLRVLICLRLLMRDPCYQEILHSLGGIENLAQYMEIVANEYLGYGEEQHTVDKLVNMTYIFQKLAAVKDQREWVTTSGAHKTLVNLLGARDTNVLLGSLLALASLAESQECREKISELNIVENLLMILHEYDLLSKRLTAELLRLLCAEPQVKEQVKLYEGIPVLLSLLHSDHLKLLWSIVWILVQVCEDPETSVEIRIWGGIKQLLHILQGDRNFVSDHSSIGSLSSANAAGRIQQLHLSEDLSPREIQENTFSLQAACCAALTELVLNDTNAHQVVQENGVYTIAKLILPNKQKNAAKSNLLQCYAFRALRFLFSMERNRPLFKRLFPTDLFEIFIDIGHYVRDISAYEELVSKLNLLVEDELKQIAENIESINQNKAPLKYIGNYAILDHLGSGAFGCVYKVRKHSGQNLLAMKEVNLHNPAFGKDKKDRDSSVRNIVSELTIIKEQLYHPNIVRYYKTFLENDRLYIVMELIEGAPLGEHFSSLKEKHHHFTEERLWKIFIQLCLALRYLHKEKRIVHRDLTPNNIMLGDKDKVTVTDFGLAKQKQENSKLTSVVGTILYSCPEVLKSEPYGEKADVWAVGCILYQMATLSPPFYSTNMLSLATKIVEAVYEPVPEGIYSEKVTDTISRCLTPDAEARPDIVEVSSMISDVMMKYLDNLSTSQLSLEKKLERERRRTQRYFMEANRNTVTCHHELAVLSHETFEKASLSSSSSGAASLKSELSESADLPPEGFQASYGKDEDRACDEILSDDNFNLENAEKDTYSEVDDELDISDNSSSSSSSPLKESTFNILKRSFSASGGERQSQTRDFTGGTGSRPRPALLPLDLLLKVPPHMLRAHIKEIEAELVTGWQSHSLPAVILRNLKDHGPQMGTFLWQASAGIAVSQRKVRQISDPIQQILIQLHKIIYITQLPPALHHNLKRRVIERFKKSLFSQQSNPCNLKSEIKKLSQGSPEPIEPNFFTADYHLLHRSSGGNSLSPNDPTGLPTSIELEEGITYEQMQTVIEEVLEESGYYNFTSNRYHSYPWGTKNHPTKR

[4] = biological target: T3, Serine/threonine-protein kinase Nek5 (Homo sapiens) (UniProt Q6P3R8); assay: Inhibition of NEK5 (unknown origin) at 1 uM relative to control
T3 sequence (whole entry): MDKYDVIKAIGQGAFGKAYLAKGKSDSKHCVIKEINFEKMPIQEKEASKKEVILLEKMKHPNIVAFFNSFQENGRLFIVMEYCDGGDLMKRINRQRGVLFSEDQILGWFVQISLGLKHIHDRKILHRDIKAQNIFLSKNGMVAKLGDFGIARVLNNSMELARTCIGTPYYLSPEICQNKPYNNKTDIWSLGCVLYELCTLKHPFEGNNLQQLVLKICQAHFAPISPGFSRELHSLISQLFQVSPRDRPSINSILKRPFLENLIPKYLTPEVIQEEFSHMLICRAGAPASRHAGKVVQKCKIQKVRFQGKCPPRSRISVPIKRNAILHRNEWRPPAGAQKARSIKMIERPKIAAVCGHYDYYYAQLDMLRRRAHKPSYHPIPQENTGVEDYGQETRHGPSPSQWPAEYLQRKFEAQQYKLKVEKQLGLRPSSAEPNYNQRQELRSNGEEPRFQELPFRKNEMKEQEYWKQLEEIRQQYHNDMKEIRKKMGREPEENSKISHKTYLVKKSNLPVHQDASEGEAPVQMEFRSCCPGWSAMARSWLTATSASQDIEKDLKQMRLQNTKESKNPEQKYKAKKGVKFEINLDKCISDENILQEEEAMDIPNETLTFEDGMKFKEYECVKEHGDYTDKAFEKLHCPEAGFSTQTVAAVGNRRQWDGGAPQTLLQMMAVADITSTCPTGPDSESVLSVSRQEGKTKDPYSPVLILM

[5] = biological target: Serine/threonine-protein kinase Nek7 (Homo sapiens) (UniProt Q8TDX7); assay: Inhibition of NEK7 (unknown origin) at 1 uM relative to control
Sequence of Serine/threonine-protein kinase Nek7 (Homo sapiens) (Q8TDX7 whole entry, looked up): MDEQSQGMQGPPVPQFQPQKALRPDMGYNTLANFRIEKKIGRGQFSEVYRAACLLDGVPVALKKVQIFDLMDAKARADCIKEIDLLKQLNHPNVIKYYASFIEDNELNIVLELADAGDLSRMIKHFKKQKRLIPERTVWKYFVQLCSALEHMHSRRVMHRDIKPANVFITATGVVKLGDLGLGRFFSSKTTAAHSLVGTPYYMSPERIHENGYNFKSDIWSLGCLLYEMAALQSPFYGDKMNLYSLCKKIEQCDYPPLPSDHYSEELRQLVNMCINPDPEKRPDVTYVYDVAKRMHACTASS

[6] = biological target: T4, Serine/threonine-protein kinase Nek11 (Homo sapiens) (UniProt Q8NG66); assay: Inhibition of NEK11 (unknown origin) at 1 uM relative to control
T4 sequence (whole entry): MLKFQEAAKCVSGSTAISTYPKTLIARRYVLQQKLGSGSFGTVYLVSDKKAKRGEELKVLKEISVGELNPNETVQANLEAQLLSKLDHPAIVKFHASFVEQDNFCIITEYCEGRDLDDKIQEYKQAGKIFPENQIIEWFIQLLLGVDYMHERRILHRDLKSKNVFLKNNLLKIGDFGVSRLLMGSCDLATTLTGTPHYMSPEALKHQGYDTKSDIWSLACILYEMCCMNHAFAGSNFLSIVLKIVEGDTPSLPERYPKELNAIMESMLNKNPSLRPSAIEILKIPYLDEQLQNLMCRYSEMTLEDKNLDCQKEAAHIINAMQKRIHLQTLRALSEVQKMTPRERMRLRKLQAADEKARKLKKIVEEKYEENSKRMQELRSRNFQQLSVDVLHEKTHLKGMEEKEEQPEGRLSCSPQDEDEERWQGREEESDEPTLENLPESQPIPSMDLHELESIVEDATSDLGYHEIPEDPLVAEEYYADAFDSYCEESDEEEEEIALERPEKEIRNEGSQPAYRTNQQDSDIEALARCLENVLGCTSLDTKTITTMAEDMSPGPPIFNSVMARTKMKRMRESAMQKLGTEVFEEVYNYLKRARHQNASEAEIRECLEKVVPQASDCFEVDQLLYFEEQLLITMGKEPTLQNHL

[7] = biological target: T5, Serine/threonine-protein kinase Nek3 (Homo sapiens) (UniProt P51956); assay: Inhibition of NEK3 (unknown origin) at 1 uM relative to control
T5 sequence (whole entry): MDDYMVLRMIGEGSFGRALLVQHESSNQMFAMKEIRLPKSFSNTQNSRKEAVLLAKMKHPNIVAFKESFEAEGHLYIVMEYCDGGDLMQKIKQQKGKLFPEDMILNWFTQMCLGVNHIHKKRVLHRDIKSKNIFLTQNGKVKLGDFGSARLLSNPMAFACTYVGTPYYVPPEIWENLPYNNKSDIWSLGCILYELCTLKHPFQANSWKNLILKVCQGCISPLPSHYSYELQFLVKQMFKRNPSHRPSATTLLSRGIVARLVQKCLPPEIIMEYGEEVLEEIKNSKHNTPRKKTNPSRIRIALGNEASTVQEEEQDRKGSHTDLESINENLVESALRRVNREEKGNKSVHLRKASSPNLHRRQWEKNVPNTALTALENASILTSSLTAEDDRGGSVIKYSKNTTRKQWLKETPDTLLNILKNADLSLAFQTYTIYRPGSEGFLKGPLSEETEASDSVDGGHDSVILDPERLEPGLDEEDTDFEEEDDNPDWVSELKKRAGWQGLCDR

[8] = biological target: Fibroblast growth factor receptor 3 (Homo sapiens) (UniProt P22607); assay: Inhibition of FGFR3 (unknown origin) at 1 uM relative to control
Sequence of Fibroblast growth factor receptor 3 (Homo sapiens) (P22607 23-806 limits assumed): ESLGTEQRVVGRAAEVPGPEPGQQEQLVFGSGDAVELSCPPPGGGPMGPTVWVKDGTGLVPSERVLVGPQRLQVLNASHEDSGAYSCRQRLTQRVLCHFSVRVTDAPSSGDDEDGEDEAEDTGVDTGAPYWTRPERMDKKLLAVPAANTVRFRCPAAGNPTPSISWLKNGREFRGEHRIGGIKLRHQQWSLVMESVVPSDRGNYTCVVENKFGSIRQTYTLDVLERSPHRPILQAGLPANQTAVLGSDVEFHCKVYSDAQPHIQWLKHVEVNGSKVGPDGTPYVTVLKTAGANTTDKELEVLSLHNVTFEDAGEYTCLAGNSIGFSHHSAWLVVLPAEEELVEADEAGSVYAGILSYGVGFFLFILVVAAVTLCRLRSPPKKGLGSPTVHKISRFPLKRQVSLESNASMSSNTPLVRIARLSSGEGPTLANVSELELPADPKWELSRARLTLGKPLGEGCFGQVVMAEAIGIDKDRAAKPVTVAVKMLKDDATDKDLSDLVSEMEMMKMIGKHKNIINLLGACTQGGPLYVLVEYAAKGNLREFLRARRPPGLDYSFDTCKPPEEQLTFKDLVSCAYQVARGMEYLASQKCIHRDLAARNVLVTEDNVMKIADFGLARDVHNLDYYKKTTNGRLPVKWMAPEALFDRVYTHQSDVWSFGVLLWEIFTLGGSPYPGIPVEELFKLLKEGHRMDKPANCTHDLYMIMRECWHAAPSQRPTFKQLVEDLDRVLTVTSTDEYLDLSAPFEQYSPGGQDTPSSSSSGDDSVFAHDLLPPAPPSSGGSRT

[9] = biological target: T6, Cytoplasmic tyrosine-protein kinase BMX (Homo sapiens) (UniProt P51813); assay: Inhibition of BMX (unknown origin) at 1 uM relative to control
T6 sequence (whole entry): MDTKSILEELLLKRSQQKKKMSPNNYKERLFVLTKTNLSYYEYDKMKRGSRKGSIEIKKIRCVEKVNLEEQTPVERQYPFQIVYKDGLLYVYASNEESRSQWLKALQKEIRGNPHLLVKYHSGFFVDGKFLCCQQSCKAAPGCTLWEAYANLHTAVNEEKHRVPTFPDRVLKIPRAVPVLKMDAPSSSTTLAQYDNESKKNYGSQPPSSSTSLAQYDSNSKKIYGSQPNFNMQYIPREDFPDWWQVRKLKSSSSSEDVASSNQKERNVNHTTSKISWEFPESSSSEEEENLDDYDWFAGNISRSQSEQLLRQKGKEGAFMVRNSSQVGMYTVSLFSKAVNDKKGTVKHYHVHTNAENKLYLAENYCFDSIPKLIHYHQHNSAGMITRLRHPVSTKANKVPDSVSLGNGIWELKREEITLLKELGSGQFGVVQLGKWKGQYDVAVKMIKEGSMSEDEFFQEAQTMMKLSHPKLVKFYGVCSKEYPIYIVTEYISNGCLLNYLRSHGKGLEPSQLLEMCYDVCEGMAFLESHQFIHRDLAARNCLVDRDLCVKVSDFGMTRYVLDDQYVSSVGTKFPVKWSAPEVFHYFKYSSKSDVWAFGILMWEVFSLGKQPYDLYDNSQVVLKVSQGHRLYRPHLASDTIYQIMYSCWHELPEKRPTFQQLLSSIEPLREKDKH

[10] = biological target: T7, Mitogen-activated protein kinase kinase kinase 19 (Homo sapiens) (UniProt Q56UN5); assay: Inhibition of YSK4 (unknown origin) at 1 uM relative to control
T7 sequence (whole entry): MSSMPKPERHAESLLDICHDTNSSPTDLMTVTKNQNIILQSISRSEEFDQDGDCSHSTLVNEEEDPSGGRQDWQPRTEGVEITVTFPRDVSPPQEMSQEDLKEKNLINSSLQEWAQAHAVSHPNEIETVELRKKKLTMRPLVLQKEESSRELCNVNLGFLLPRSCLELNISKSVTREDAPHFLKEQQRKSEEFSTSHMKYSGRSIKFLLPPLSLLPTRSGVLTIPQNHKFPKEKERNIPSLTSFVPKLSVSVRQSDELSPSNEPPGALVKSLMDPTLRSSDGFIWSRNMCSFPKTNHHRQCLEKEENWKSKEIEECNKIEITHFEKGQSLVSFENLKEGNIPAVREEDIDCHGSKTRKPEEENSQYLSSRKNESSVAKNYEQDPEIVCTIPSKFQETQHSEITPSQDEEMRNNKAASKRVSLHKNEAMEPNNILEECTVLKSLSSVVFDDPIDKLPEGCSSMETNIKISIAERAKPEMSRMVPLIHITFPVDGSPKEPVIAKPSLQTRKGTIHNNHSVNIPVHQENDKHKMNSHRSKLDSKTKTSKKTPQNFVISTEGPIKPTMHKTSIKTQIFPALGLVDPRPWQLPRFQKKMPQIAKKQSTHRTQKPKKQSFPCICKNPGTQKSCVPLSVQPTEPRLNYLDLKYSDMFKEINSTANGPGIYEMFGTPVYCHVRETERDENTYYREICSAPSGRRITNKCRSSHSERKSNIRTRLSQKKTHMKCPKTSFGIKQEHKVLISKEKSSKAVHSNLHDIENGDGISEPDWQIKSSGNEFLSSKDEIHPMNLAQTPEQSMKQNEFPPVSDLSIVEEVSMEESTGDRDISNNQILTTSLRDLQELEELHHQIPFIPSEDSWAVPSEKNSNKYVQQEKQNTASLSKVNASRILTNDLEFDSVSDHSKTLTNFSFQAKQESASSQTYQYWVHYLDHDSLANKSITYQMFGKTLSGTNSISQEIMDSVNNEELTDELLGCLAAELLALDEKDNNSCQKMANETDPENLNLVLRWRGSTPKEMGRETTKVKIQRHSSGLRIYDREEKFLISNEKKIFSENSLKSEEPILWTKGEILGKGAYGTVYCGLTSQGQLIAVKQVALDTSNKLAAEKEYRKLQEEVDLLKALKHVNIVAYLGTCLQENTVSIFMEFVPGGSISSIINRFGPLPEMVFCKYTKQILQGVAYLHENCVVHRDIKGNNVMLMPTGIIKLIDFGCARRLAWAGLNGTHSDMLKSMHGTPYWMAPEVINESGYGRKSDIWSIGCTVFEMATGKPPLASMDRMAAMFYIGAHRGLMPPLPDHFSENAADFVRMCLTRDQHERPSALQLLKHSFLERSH

[11] = biological target: Angiopoietin-1 receptor (Homo sapiens) (UniProt Q02763); assay: Inhibition of TIE2 (unknown origin) at 1 uM relative to control
Sequence of Angiopoietin-1 receptor (Homo sapiens) (Q02763 whole entry): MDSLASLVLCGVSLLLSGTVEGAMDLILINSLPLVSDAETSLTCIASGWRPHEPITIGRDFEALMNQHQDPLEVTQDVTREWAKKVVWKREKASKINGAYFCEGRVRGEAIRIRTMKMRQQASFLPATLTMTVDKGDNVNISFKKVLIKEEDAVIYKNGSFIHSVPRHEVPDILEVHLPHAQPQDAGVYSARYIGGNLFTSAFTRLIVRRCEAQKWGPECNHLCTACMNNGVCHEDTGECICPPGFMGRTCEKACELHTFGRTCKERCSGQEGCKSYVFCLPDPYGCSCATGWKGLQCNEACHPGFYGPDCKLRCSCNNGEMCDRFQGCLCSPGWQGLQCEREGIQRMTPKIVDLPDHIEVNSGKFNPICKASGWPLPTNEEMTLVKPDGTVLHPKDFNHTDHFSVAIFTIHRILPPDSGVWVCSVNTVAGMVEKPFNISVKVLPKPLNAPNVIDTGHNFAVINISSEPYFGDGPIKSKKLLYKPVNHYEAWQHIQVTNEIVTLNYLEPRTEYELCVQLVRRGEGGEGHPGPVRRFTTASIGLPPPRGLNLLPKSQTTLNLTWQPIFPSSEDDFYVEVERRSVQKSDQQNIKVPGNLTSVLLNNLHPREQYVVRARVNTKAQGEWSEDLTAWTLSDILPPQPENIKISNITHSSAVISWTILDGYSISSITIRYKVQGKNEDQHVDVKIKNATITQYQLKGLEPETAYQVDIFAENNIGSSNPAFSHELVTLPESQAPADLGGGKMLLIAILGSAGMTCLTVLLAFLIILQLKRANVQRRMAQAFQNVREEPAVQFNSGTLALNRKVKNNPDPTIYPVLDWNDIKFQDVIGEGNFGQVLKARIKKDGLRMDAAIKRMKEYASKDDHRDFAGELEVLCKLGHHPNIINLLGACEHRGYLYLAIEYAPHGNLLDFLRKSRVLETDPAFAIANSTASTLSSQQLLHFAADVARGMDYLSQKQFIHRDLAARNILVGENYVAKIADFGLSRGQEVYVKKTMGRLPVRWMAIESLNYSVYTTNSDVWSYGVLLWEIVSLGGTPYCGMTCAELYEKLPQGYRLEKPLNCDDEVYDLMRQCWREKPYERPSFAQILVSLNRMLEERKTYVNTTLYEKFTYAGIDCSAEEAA

Sequence of Serine/threonine-protein kinase Nek6 (Homo sapiens) (Q9HC98 whole entry): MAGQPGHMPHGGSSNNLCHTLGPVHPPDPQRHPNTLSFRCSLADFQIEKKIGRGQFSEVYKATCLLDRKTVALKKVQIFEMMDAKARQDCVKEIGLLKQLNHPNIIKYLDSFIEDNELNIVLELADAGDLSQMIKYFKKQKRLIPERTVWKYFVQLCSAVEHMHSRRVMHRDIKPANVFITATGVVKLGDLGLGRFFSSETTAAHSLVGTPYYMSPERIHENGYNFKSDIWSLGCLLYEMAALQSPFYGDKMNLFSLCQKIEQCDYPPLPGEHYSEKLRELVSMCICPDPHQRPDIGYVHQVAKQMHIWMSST

Row | SMILES | inhibition [1] [%] | inhibition [2] [%] | inhibition [3] [%] | inhibition [4] [%] | inhibition [5] [%] | inhibition [6] [%] | inhibition [7] [%] | inhibition [8] [%] | inhibition [9] [%] | inhibition [10] [%] | inhibition [11] [%]
1 | NC(=O)c1nnc2ccccc2c1N | – | – | 85 | – | – | – | – | 90 | 90.1 | 88 | 98.7
2 | Cn1cc(-c2cccc3c(N)c(C(N)=O)nnc23)cn1 | – | – | 48 | – | – | – | – | 12 | 15 | 94.4 | 1
3 | CC[C@@H]1C(=O)N(C)c2cnc(Nc3ccc(C(=O)NC4CCN(C)CC4)cc3OC)nc2N1C1CCCC1 | – | 72 | – | – | – | – | – | – | – | – | –

The next lines start with the values.

Row | inhibition [1] [%] | inhibition [2] [%] | inhibition [3] [%] | inhibition [4] [%] | inhibition [5] [%] | inhibition [6] [%] | inhibition [7] [%] | inhibition [8] [%] | inhibition [9] [%] | inhibition [10] [%] | inhibition [11] [%] | SMILES
4 | 0.3 | 7 | 56 | 75 | 1.6 | 0.2 | 100 | – | – | – | – | CC(C)(C)c1nc(-c2cccc(NS(=O)(=O)c3c(F)cccc3F)c2F)c(-c2ccnc(N)n2)s1
5 | – | – | 86 | – | – | – | – | 0 | 83 | 71 | 31 | Cc1cc2cn[nH]c2cc1-c1cccc2c(N)c(C(N)=O)nnc12
